A value given as a limit tells only on which side of the number the result lay.

Here are results for 18 compounds from patent US11691969B2, “Pyridazinones as PARP7 inhibtors” (Ribon Therapeutics, Inc., priority 2019, dated 2023).

PARP7, sequence (Q7Z3E1 whole entry): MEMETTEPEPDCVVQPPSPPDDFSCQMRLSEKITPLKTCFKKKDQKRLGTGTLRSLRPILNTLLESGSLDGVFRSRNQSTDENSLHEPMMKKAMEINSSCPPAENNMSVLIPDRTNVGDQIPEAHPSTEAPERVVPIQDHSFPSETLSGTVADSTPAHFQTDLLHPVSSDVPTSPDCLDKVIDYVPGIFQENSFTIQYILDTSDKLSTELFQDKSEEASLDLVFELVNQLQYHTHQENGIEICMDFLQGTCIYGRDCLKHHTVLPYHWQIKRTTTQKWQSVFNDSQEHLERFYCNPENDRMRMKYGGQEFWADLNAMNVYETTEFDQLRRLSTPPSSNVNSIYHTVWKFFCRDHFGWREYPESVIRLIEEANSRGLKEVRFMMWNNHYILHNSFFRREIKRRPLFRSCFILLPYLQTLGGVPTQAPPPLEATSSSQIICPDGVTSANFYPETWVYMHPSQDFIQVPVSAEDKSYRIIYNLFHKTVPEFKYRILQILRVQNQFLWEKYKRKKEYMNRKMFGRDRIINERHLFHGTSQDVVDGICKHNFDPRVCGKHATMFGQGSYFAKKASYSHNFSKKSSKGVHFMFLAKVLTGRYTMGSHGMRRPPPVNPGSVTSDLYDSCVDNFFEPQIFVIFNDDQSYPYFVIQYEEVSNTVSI

This test addresses PARP7 (Homo sapiens (Human), UniProt Q7Z3E1). In words: TR-FRET assay: displacement of biotinylated Probe A from the TIPARP active site (Enzymatic Assay for Inhibition of PARP7). In kind it is binding. Particulars: TIPARP 6 nM, Probe A 2 nM, 25° C. The method, then: Example A. Enzymatic Assay for Inhibition of PARP7
Displacement of Probe A, a biotinylated probe binding to the TIPARP active site, was measured using a time-resolved fluorescence energy transfer (TR-FRET) assay. 20 nL of a dose response curve of each test compound was spotted in black 384-well polystyrene proxiplates (Perkin Elmer) using a Mosquito (TTP Labtech). Reactions were performed in a 8 μl volume by adding 6 μL of TIPARP and Probe A in assay buffer (20 mM HEPES pH=8, 100 mM NaCl, 0.1% bovine serum albumin, 2 mM DTT and 0.002% Tween20), incubating with test compound at 25° C. for 30 min, then adding 2 μL of ULight-anti 6×His and LANCE Eu-W1024 labeled streptavidin (Perkin Elmer). The final concentrations of TIPARP and Probe A were 6 nM and 2 nM, respectively. The final concentration of ULight-anti 6×His and LANCE Eu-W1024 labeled streptavidin were 4 nM and 0.25 nM, respectively. Reactions were incubated at 25° C. for an additional 30 min, then read on an Envision platereader equipped with a LANCE/DELFIA top mirror (Perkin Elmer) using excitation of 320 nm and emission of 615 nm and […] with a […]. The ratio of the 665/615 nm emission were calculated for each well to determine the amount of complex of TIPARP and Probe Ain each well. Control wells containing a negative control of 0.25% DMSO vehicle or a positive control of 100 μM 5-(5-(piperidin-4-yloxy)isoindolin-2-yl)-4-(trifluoromethyl)pyridazin-3(2H)-one were used to calculate the % inhibition as described below:
[formula] where TRFcmpd is the TR-FRET ratio from the compound treated well, TRFmin is the TR-FRET ratio from the 5-(5-(piperidin-4-yloxy)isoindolin-2-yl)-4-(trifluoromethyl)pyridazin-3(2H)-one—treated positive control well and TRFmax is the TR-FRET ratio from the DMSO-treated negative control well. The % inhibition values were plotted as a function of compound concentration and the following 4-parameter fit was applied to derive the IC50 values:
[formula] where top and bottom are normally allowed to float, but may be fixed at 100 or 0 respectively in a 3-parameter fit. The Hill Coefficient is normally allowed to float but may also be fixed at 1 in a 3-parameter fit. Y is the % inhibition and X is the compound concentration. Synthesis of Probe A
For `C[C@@H](CO[C@H]1CCCN(C2CCN(c3ncc(C(F)(F)F)cn3)CC2)C1=O)Nc1cn[nH]c(=O)c1C(F)(F)F` [Example 34A, (S)-3-((S)-2-((6-oxo-5-(trifluoromethyl)-1,6-dihydropyridazin-4-yl)amino)propoCyxy)-1′-(5-(trifluoromethyl)pyrimidin-2-yl)-[1,4′-bipiperidin]-2-one], the IC50 was less than 100 nM. To `C[C@@H](COCC(=O)N(C)C1CCN(c2ncc(C(F)(F)F)s2)CC1)Nc1cn[nH]c(=O)c1C(F)(F)F` [Example 3, (S)—N-methyl-2-(2-((6-oxo-5-(trifluoromethyl)-1,6-dihydropyridazin-4-yl)amino)propoxy)-N-(1-(5-(trifluoromethyl)thiazol-2-yl)piperidin-4-yl)acetamide] belongs less than 100 nM; to `COC[C@@H](CO[C@@H]1CCN(C2CCN(c3ncc(C(F)(F)F)cn3)CC2)C1=O)Oc1cn[nH]c(=O)c1C(F)(F)F` [Example 51B, 5-(((S)-1-methoxy-3-(((R)-2-oxo-1-(1-(5-(trifluoromethyl)pyrimidin-2-yl)piperidin-4-yl)pyrrolidin-3-yl)oxy)propan-2-yl)oxy)-4-(trifluoromethyl)pyridazin-3(2H)-one], less than 100 nM. The value for `COC[C@@H](CO[C@H]1CCN(C2CCN(c3ncc(C)cn3)CC2)C1=O)Oc1cn[nH]c(=O)c1C(F)(F)F` [Example 52A, 5-(((S)-1-methoxy-3-(((S)-1-(1-(5-methylpyrimidin-2-yl)piperidin-4-yl)-2-oxopyrrolidin-3-yl)oxy)propan-2-yl)oxy)-4-(trifluoromethyl)pyridazin-3(2H)-one] was 100 to 1000 nM; that for `C[C@@H](CO[C@H]1CCN(C2CCN(c3cnc(C(F)(F)F)cn3)CC2)C1=O)Nc1cn[nH]c(=O)c1C(F)(F)F` [Example 13A, 5-(((S)-1-(((S)-2-oxo-1-(1-(5-(trifluoromethyl)pyrazin-2-yl)piperidin-4-yl)pyrrolidin-3-yl)oxy)propan-2-yl)amino)-4-(trifluoromethyl)pyridazin-3(2H)-one] was 100 to 1000 nM; that for `C[C@@H](COCC(=O)N(C)C1CN(c2ncc(C(F)(F)F)cn2)C1)Nc1cn[nH]c(=O)c1C(F)(F)F` [Example 5, (S)—N-methyl-2-(2-(6-oxo-5-(trifluoromethyl)-1,6-dihydropyridazin-4-ylamino)propoxy)-N-(1-(5-(trifluoromethyl)pyrimidin-2-yl)azetidin-3-yl)acetamide] was less than 100 nM.

For the compound `C[C@@H](CO[C@@H]1CCN([C@H]2CCN(c3ncc(C(F)(F)F)cn3)C[C@H]2O)C1=O)Nc1cn[nH]c(=O)c1C(F)(F)F` [Example 60, 5-(((S)-1-(((R)-1-((3R,4S)-3-hydroxy-1-(5-(trifluoromethyl)pyrimidin-2-yl)piperidin-4-yl)-2-oxopyrrolidin-3-yl)oxy)propan-2-yl)amino)-4-(trifluoromethyl)pyridazin-3(2H)-one], the IC50 was less than 100 nM. The value for `C[C@@H](CO[C@@H]1CCN(C2CCN(c3ncc(C(F)(F)F)cn3)CC2)C1=O)Oc1cn[nH]c(=O)c1C(F)(F)F` [Example 20B, 5-(((S)-1-(((R)-2-oxo-1-(1-(5-(trifluoromethyl)pyrimidin-2-yl)piperidin-4-yl)pyrrolidin-3-yl)oxy)propan-2-yl)oxy)-4-(trifluoromethyl)pyridazin-3(2H)-one] was less than 100 nM; that for `COC[C@@H](COCC(=O)N(C)C1CCN(c2ncc(C(F)(F)F)cn2)CC1)Nc1cn[nH]c(=O)c1C(F)(F)F` [Example 9, (S)-2-(3-methoxy-2-((6-oxo-5-(trifluoromethyl)-1,6-dihydropyridazin-4-yl)amino)propoxy)-N-methyl-N-(1-(5-(trifluoromethyl)pyrimidin-2-yl)piperidin-4-yl)acetamide] was less than 100 nM. In turn, `CN(C(=O)COC[C@@H]1CCN1c1cn[nH]c(=O)c1C(F)(F)F)C1CCN(c2ncc(C(F)(F)F)cn2)CC1` [Example 8, (S)—N-methyl-2-((1-(6-oxo-5-(trifluoromethyl)-1,6-dihydropyridazin-4-yl)azetidin-2-yl)methoxy)-N-(1-(5-(trifluoromethyl)pyrimidin-2-yl)piperidin-4-yl)acetamide] yielded an IC50 of less than 100 nM. The value for `COC[C@@H](CO[C@@H]1CCN(C2CCN(c3ccc(C#N)cn3)CC2)C1=O)Nc1cn[nH]c(=O)c1C(F)(F)F` [Example 17B, 6-(4-((R)-3-((S)-3-methoxy-2-((6-oxo-5-(trifluoromethyl)-1,6-dihydropyridazin-4-yl)amino)propoxy)-2-oxopyrrolidin-1-yl)piperidin-1-yl)nicotinonitrile] was less than 100 nM; that for `COC[C@@H](CO[C@H]1CCN(C2CCN(c3ncc(C(F)(F)F)cn3)CC2)C1=O)Nc1cn[nH]c(=O)c1C(F)(F)F` [Example 19A, 5-(((S)-1-methoxy-3-(((S)-2-oxo-1-(1-(5-(trifluoromethyl)pyrimidin-2-yl)piperidin-4-yl)pyrrolidin-3-yl)oxy)propan-2-yl)amino)-4-(trifluoromethyl)pyridazin-3(2H)-one] was 100 to 1000 nM. `C[C@@H](CO[C@@H]1CCN(C2CCN(c3ncc(C(F)(F)F)cn3)CC2)C1=O)Nc1cn[nH]c(=O)c1C(F)(F)F` [Example 10B, 5-((S)-1-((R)-1-(1-(5-(trifluoromethyl)pyrimidin-2-yl)piperidin-4-yl)-2-oxopyrrolidin-3-yloxy)propan-2-ylamino)-4-(trifluoromethyl)pyridazin-3(2H)-one] yielded an IC50 of less than 100 nM. To `C[C@@H](COC1CCN(C2CCN(c3ccc(C#N)cn3)CC2)C1=O)Oc1cn[nH]c(=O)c1C(F)(F)F` (stereo partly drawn) [Example 30, 6-(4-(2-oxo-3-((S)-2-((6-oxo-5-(trifluoromethyl)-1,6-dihydropyridazin-4-yl)oxy)propoxy)pyrrolidin-1-yl)piperidin-1-yl)nicotinonitrile] belongs less than 100 nM. With `C[C@@H](CO[C@H]1CCN(C2CCN(c3ccc(C#N)cn3)CC2)C1=O)Nc1cn[nH]c(=O)c1C(F)(F)F` [Example 14A, 6-(4-((S)-2-oxo-3-((S)-2-((6-oxo-5-(trifluoromethyl)-1,6-dihydropyridazin-4-yl)amino)propoxy)pyrrolidin-1-yl)piperidin-1-yl)nicotinonitrile], the IC50 is no less than 1000 nM. To `C[C@@H](CO[C@@H]1CCN(C2CCN(c3ncc(C(F)(F)F)cn3)CC2C(N)=O)C1=O)Nc1cn[nH]c(=O)c1C(F)(F)F` (stereo partly drawn) [Example 68, 4-((R)-2-oxo-3-((S)-2-((6-oxo-5-(trifluoromethyl)-1,6-dihydropyridazin-4-yl)amino)propoxy)pyrrolidin-1-yl)-1-(5-(trifluoromethyl)pyrimidin-2-yl)piperidine-3-carboxamide] belongs less than 100 nM; to `C[C@@H](COC1CCN(C2CCN(c3ncc(C(F)F)cn3)CC2)C1=O)Oc1cn[nH]c(=O)c1C(F)(F)F` (stereo partly drawn) [Example 27, 5-(((2S)-1-((1-(1-(5-(difluoromethyl)pyrimidin-2-yl)piperidin-4-yl)-2-oxopyrrolidin-3-yl)oxy)propan-2-yl)oxy)-4-(trifluoromethyl)pyridazin-3(2H)-one], less than 100 nM; to `C[C@@H](CO[C@@H]1CCN([C@@H]2CCN(c3ccc(C#N)cn3)CC2(F)F)C1=O)Nc1cn[nH]c(=O)c1C(F)(F)F` (single isomer, unassigned) [Example 40A], less than 100 nM.
